For data set [1], the system named is TxB2. Kind of data set: Suppressing production of thromboxane B2 (TxB2) from rat peritoneal exudation cells. In kind it is cell-based. As to conditions: A23187 2 μg/ml, read-out: Production suppressing function IC50, TxB2. The procedure:
(§1) After 20 to 24 hours, peritoneal exudation cells were collected from the rats, washed and suspended in the Hank's buffer salt solution (HESS) at a concentration of 5×10^6 /ml. Then 100 μl/well of the obtained cell suspension was […] into a 96-well culture plate (Costar^R) containing 10 μl/well of a sample drug diluted to a given concentration. The plate was incubated at 37° C. for 5 minutes and A23187 (CALBIOCHEM®) was added thereto so as to give a final concentration of 2 μg/ml. After incubating at 37° C. for additional 10 minutes, the plate was transferred on ice and a B[…] solution was added thereto so as to give a final concentration of 100 μM. This plate was centrifuged at 15,000 rpm for 10 minutes and the supernatant was collected. Then the LTB4, TxB2 and PGE2 present in the supernatant were determined by enzyme immunoassay with the use of an EIA Kit manufactured by CAYMAN.

In data set [2] the test system is LTB4. The data set can be described thus: Suppressing production of leukotriene B4 (LTB4) from rat peritoneal exudation cells. It is filed as cell-based. As to conditions: A23187 2 μg/ml, read-out: Production suppressing function IC50, LTB4. Here is the method: as §1
For data set [3], the system named is PGE2. The data set can be described thus: Effect on production of prostaglandin E2 (PGE2) from rat peritoneal exudation cells. In kind it is cell-based. As to conditions: A23187 2 μg/ml. The procedure:
as §1

For data set [4], the system named is TxB2. Kind of data set: Suppressing production and liberation of TxB2 from TNB-colitis rat colon. As to conditions: 100 mg/kg oral, 6 hours, A23187 5 μg/ml. It is filed as in vivo. The procedure: (§2) Functions of suppressing production and liberation of LTB4 and TxB2 from TNB (trinitrobenzenesulfonic acid)-colitis rat colon Rat TNB-colitis was induced in accordance with the method reported by Morris et al. [Gastroenterology, 96, 795-803 (1989)]. Namely, each of male F344 rats aged 9 weeks was fasted for 2 days and then etherized. A sound (1.2×80 mm, manufactured by Fuehigami Kikai-ten) was inserted into the rectum of the animal to inject 0.25 ml of a 120 mg/ml solution of TNB (a product of Tokyo Kasei K. K.) in 50% ethanol into the colon cavity. The effects of each compound on the production and liberation of LTB4 and TxB2 from the colon of the TNB-colitis rat were evaluated by using the rat 7 days after the injection of TNB. Namely, each compound (5% suspension in methylcellulose) was orally administered to the rat in a dose of 0.5 ml/100 g body weight. After 6 hours, the animal was deeply deeply etherlzed and subjected to autopsy. Thus the colon tissue was extirpated. The colon was incubated in Tyrode's solution (CALBIOCHEM containing 5 μg/ml of A23187-calcium ionophore) at 37° C. for 20 minutes in accordance with the method of […] et al. [Biochim. Biophys. Acta, 878, 184-193 (1986)]. Then LTB4, TxB2 and PGE2 thus produced and liberated into the medium were determined by radioimmunoassay (RXA).

The test system of data set [5] is LTB4. Kind of data set: Suppressing production and liberation of LTB4 from TNB-colitis rat colon. It is filed as in vivo. As to conditions: 100 mg/kg oral, 6 hours, A23187 5 μg/ml. Here is the method: as §2
Data set [6] relates to PGE2. Kind of data set: Suppressing production and liberation of PGE2 from TNB-colitis rat colon. As to conditions: 100 mg/kg oral, 6 hours, A23187 5 μg/ml. It is filed as in vivo. The procedure: as §2
The test system of data set [7] is TNB-colitis. The data set can be described thus: Therapeutic effects on TNB-colitis (MPO in colon). In kind it is in vivo, rat. As to conditions: once a day for 11 days. The procedure: Therapeutic effects on TNB-colitis
Rat TNB-colitis was induced in accordance with the method reported by Morris et al. [Gastroenterology, 96, 795-808 (1989)]. Namely, each of male F344 rats aged 9 weeks was fasted for 2 days and then etherized. A sound (1.2×80 mm, manufactured by Fuchigami Kikai-ten) was inserted into the rectum of the animal to inject 0.25 ml of a 120 mg/ml solution of TNB (a product of Tokyo Kasei K. K.) in 50% ethanol into the colon cavity. 3 days after the injection of TNB, each compound (5% suspension in methylcellulose) was orally administered once a day for 11 days. 14 days after the injection of TNB, the animal was subjected to autopsy and the colon was extirpated. The extent of damage to the colon was evaluated by determining MPO (myeloperoxidase) present therein.
The therapeutic ratio was calculated according to the following equation:
therapeutic ratio=(5% methylcellulose group-ethanol group)-(invention
compound group-ethanol group).

Data set [8] deals with rats. Kind of data set: Toxicity test, 28 days repeated administration. In kind it is in vivo, rat. As to conditions: 200 mg/kg once a day for 28 days.

“Also recorded” adds a separate entry of the source. Structures can show the parent of a compound that is named as a salt. A value given as a limit tells only on which side of the number the result lay.

For `COc1c(O)c(C)c2sc(N)nc2c1Cc1cccnc1` [Example 20, 2-Amino-6-hydroxy-5-methoxy-7-methyl-4-(3-pyridylmethyl)benzothiazole dihydrochlorlde], the results for the half-maximal inhibitory concentration (IC50) in data set [1] and in data set [2] were 110 nM and 170 nM, respectively. Further, in data set [3], the “Production suppressing function, PGE2 (in words)” value (from here on “Production suppressing function”) is listed as “enhanced at 0.1-100 μM”.
As for `COc1cc2nc(NCc3cccnc3)sc2c(OC)c1O` [Example 1, 6-Hydroxy-5,7-dimethoxy-2-(3-pyridylmethyl)aminobenzothiazole], the “Suppression ratio (%), TxB2” value in data set [4] was found to be 55%. Moreover, the half-inhibitory concentration (IC50) (usually the concentration at which inhibition is half-maximal) is 5460 nM in data set [1] and 90 nM in data set [2]. Further, the “Production suppressing function” value in data set [3] is reported as “enhanced at 1-10 μM; also recorded: suppressed at 100 μM”. Further, the “Suppression ratio (%), LTB4” value in data set [5] is listed as 19%. Further, in data set [6], the “Suppression ratio (%), PGE2” value is recorded as 10%.
Regarding `C[C@]12C=CC(=O)C=C1CC[C@@H]1[C@@H]2[C@@H](O)C[C@@]2(C)[C@H]1CC[C@]2(O)C(=O)CO` [prednisolone, reference compound], the “Therapeutic ratio (%)” value in data set [7] (10 mg/kg/day oral) came to 60%.
As for `CCNc1nc2c(Cc3cccnc3)c(C)c(O)c(C)c2s1.Cl.Cl` [Example 11, 2-Ethylamino-6-hydroxy-5,7-dimethyl-4-(3-pyridylmethyl)benzothiazole dihydrochloride], the “Suppression ratio (%), TxB2” value in data set [4] is 85%. Moreover, the results for the IC50 in data set [1] and in data set [2] were 100 nM and less than 100 nM, respectively. Besides, the “Therapeutic ratio (%)” value in data set [7] (100 mg/kg/day oral) is given as 41%. Also, in data set [3] (dihydrochloride), the “Production suppressing function” value is “enhanced at 0.1-10 μM; also recorded: suppressed at 100 μM”. The “Suppression ratio (%), LTB4” value in data set [5] stood at 94%. Also, in data set [6], the “Suppression ratio (%), PGE2” value is 0%.
As for `Cc1c(O)c(C)c2sc(N)nc2c1Cc1cccnc1` [Example 18, 2-Amino-6-hydroxy-5,7-dimethyl-4-(3-pyridylmethyl)benzothiazole dihydrochloride], the IC50 worked out at 2 nM in data set [1] and 190 nM in data set [2].
With `CNc1nc2c(Cc3cccnc3)c(C)c(O)c(C)c2s1` [Example 10, 6-Hydroxy-5,7-dimethyl-2-methylamino-4-(3-pyridylmethyl)benzothiazole], in data set [3], the “Production suppressing function” value is on record as “enhanced at 0.1-10 μM”. Moreover, the “abnormality caused by the administration” value in data set [8] is reported as “no abnormality caused by the administration of the drug was observed”.
Take `Cc1c(O)c(Cc2cccnc2)c2sc(N)nc2c1C.Cl.Cl` [Example 15, 2-Amino-6-hydroxy-4,5-dimethyl-7-(3-pyridylmethyl)benzothiazole dihydrochloride]: the values for the IC50 in data set [1] and in data set [2] were 5310 nM and 250 nM, respectively. The “Production suppressing function” value in data set [3] was “enhanced at 0.1-100 μM”.
Consider `CCc1c(O)c(OC)c(Cc2cccnc2)c2nc(N)sc12` [Example 22, 2-Amino-7-ethyl-6-hydroxy-5-methoxy-4-(3-pyridylmethyl)benzothiazole dihydrochloride], for which the IC50 amounted to 180 nM in data set [1] and 150 nM in data set [2].
Regarding `CCNc1nc2c(C)c(Cc3cccnc3)c(O)c(C)c2s1` [Example 14, 2-Ethylamino-6-hydroxy-4,7-dimethyl-5-(3-pyridylmethyl)benzothiazole], the “Suppression ratio (%), TxB2” value in data set [4] is 67%. Also, the results for the IC50 in data set [1] and in data set [2] were 650 nM and 230 nM, respectively. Besides, the “Therapeutic ratio (%)” value in data set [7] (100 mg/kg/day oral) was found to be 32%. For the same compound, the “Production suppressing function” value in data set [3] is listed as “enhanced at 0.1-1 μM; also recorded: suppressed at 100 μM”. Further, the “Suppression ratio (%), LTB4” value in data set [5] was 83%. Further, in data set [6], the “Suppression ratio (%), PGE2” value was found to be 8%.
Regarding `CCCNc1nc2c(Cc3cccnc3)c(C)c(O)c(C)c2s1.Cl.Cl` [Example 12, 6-Hydroxy-5,7-dimethyl-2-propylamino-4-(3-pyridylmethyl)benzothiazole dihydrochloride], the IC50 is 90 nM in data set [1] and less than 100 nM in data set [2]. Further, the “Production suppressing function” value in data set [3] (dihydrochloride) is “enhanced at 0.1-10 μM; also recorded: suppressed at 100 μM”.
As to `CNc1nc2c(Cc3cccnc3)c(OC)c(O)c(C)c2s1` [Example 21, 6-Hydroxy-5-methoxy-7-methyl-2-methylamino-4-(3-pyridylmethyl)benzothiazoledihydrochloride], the values for the IC50 in data set [1] and in data set [2] were 1280 nM and 170 nM, respectively.
Regarding `CCc1c(O)c(OC)c(Cc2cccnc2)c2nc(NC)sc12.Cl.Cl` [Example 23, 7-Ethyl-6-hydroxy-5-methoxy-2-methylamino-4-(3-pyridylmethyl)benzothiazole dihydrochloride], the concentration for half-maximal inhibition (IC50) in data set [1] was 330 nM; in data set [2], less than 100 nM. In addition, the “Production suppressing function” value in data set [3] (dihydrochloride) was “enhanced at 0.1-10 μM; also recorded: suppressed at 100 μM”.
Consider `Cc1c(O)c(C)c2sc(NCc3cccnc3)nc2c1C` [Example 4, 6-Hydroxy-4,5,7-trimethyl-2-(3-pyridylmethyl)aminobenzothiazole], for which, in data set [4], the “Suppression ratio (%), TxB2” value came out at 72%. The results for the IC50 in data set [1] and in data set [2] were 1950 nM and less than 100 nM, respectively. In addition, in data set [7] (100 mg/kg/day oral), the “Therapeutic ratio (%)” value is 31%. For the same compound, in data set [3], the “Production suppressing function” value was “enhanced at 0.1-1 μM; also recorded: suppressed at 10 μM or above”. For the same compound, the “Suppression ratio (%), LTB4” value in data set [5] is 93%. Further, in data set [6], the “Suppression ratio (%), PGE2” value worked out at 30%.
As to `CCNc1nc2c(C)c(C)c(O)c(Cc3cccnc3)c2s1` [Example 17, 2-Ethylamino-6-hydroxy-4,5-dimethyl-7-(3-Pyridylmethyl)benzothiazole], the “Suppression ratio (%), TxB2” value in data set [4] is reported as 53%. Further, the IC50 is 2000 nM in data set [1] and less than 100 nM in data set [2]. The “Therapeutic ratio (%)” value in data set [7] (100 mg/kg/day oral) came out at 40%. In addition, in data set [3], the “Production suppressing function” value is reported as “enhanced at 1 μM; also recorded: suppressed at 100 μM”. For the same compound, in data set [5], the “Suppression ratio (%), LTB4” value amounted to 89%. Also, in data set [6], the “Suppression ratio (%), PGE2” value amounted to 41%.
On to `Cc1cc(O)c(C)c2sc(NCc3cccnc3)nc12` [Example 5, 6-Hydroxy-4,7-dimethyl-2-(3-pyridylmethyl)aminobenzothiazole], for which the “Suppression ratio (%), TxB2” value in data set [4] was 36%. Also, the concentration for half-maximal inhibition (IC50) in data set [1] was 4390 nM; in data set [2], less than 100 nM. The “Therapeutic ratio (%)” value in data set [7] (100 mg/kg/day oral) came out at 53%. In data set [3], the “Production suppressing function” value is reported as “enhanced at 0.1-10 μM; also recorded: suppressed at 100 μM”. Further, the “Suppression ratio (%), LTB4” value in data set [5] is 94%. In data set [6], the “Suppression ratio (%), PGE2” value is 30%.
`CNc1nc2c(C(OC(C)=O)c3cccnc3)c(C)c(O)c(C)c2s1` (centres unmarked) [Example 9, {4-(6-Hydroxy-5,7-dimethyl-2-methylamino)benzothiazoyl}-(3-pyridyl)methyl acetate]: the half-maximal inhibitory concentration (IC50) amounted to 730 nM in data set [1] and 380 nM in data set [2]. The “Production suppressing function” value in data set [3] is listed as “enhanced at 0.1-100 μM”.
